Experimental data: PMC12578387, “TET3 is a common epigenetic immunomodulator of pathogenic macrophages” (The Journal of Clinical Investigation, 2025)

Columns and labels:
[1] = target: TET3 (Tet methylcytosine dioxygenase 3) (Homo sapiens, UniProt O43151); experiment: AlphaScreen of Bc-dependent TET3-VHL ternary complex formation; supported by co-IP and degradation of TET3 in human MDMs; format: binding
TET1 = TET1 (Homo sapiens, UniProt Q8NFU7); experiment: AlphaScreen of Bc-dependent TET1-VHL ternary complex formation (weaker than TET3; no TET1 degradation in cells); format: binding
Sequence of TET1 (Q8NFU7 1418-2136 limits assumed): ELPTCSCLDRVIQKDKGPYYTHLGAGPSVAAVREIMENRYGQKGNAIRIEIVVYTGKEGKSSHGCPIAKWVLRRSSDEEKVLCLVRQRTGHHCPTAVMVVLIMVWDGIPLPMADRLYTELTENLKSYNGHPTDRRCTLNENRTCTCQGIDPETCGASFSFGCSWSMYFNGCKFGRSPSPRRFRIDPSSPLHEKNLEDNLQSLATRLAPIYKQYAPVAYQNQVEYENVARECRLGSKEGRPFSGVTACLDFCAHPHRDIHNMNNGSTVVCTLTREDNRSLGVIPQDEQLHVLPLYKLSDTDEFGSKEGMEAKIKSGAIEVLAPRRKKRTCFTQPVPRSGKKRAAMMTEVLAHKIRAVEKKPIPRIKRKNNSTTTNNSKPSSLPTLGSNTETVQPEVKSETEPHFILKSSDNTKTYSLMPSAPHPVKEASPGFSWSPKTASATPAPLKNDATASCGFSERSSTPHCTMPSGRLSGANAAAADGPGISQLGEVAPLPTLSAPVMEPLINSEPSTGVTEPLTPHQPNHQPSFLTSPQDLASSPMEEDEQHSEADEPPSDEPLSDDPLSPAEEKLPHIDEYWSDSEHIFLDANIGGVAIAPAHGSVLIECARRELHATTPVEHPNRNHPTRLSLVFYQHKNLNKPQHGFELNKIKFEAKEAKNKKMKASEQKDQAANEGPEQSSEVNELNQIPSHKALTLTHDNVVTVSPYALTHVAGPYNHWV
Sequence of TET1 (P40337 whole entry partner): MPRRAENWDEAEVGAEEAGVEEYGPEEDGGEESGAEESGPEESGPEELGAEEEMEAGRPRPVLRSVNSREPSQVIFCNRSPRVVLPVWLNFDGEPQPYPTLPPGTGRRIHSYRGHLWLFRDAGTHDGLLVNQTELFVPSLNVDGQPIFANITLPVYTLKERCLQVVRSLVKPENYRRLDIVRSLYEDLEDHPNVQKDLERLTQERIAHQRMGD

Sequence of TET3 (Tet methylcytosine dioxygenase 3) (O43151 850-1795 limits assumed): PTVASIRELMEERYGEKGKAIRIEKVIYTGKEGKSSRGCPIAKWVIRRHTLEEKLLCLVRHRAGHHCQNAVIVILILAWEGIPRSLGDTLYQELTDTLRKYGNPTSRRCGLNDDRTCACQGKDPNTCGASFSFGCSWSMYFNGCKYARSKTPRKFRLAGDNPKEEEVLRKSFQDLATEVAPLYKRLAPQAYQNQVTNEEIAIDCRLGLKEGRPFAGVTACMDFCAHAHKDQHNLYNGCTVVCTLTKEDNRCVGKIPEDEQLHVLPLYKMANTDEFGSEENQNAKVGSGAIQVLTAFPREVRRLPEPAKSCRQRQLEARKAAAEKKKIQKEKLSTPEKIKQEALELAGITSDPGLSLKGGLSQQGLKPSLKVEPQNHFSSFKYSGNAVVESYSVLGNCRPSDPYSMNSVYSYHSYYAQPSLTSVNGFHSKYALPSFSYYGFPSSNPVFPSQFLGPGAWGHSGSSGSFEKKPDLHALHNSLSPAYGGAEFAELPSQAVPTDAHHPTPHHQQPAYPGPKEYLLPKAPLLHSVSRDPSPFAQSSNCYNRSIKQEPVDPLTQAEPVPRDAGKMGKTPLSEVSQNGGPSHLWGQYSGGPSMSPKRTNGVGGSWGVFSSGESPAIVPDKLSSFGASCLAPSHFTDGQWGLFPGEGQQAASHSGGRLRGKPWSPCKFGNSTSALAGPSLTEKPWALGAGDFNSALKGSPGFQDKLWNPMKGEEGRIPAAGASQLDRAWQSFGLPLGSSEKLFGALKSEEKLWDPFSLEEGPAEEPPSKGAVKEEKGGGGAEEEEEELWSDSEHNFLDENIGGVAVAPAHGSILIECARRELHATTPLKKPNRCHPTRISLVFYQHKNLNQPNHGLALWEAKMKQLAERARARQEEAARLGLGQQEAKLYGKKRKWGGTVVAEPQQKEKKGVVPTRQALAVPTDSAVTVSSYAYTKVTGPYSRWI
Sequence of TET3 (Tet methylcytosine dioxygenase 3) (P40337 whole entry partner): as the sequence (P40337 whole entry partner) above

Question: With `Nc1nc(=O)n(-c2cccc(-c3ccccc3)c2)cc1Cl` [Bc, Bobcat339] as the compound, how does the EC50 [1] read?
Answer: 0.05 mM

Question: What about the EC50 (TET1) of the same compound?
Answer: 8.51 mM
